Data published in ChEMBL document CHEMBL1240367, “Therapy of murine pulmonary aspergillosis with antibody-alliinase conjugates and alliin” (2010).
In brackets after ≈: the same amount, converted by molar mass.

Experiments:
Assay type in all cases: functional
Aspergillus fumigatus [1] = test: Antifungal activity against swollen Aspergillus fumigatus
Aspergillus fumigatus [2] = test: Antifungal activity against resting Aspergillus fumigatus
Aspergillus fumigatus [3] = test: Antifungal activity against Aspergillus fumigatus hyphae
Aspergillus fumigatus [4] = test: Antifungal activity against Aspergillus fumigatus infected ICR mouse assessed as median survival time at 750 ug, it administered 1 hr post infection repeated on days 4, 6 and 9
Aspergillus fumigatus [5] = test: Antifungal activity against Aspergillus fumigatus infected ICR mouse assessed as median survival time at 1 mg/kg, it administered 1 hr post infection repeated on days 4, 6 and 9; settings: route endotracheal

C=CCS[S+]([O-])CC=C (stereo not given) [ALLICIN]
MFC (Aspergillus fumigatus [1]): 7.5 µg/mL (≈ 46.2 µM)
MFC (Aspergillus fumigatus [2]): 15 µg/mL (≈ 92.4 µM)
MIC (Aspergillus fumigatus [3]): 30 µg/mL (≈ 185 µM)

C=CC[S+]([O-])C[C@H](N)C(=O)O (stereo not given in full) [ALLIIN]
MST (Aspergillus fumigatus [4]): 7 days

C[C@@H]1[C@H](O)[C@@H](C)/C=C/C=C/C=C/C=C/C=C/C=C/C=C/[C@H](O[C@@H]2O[C@H](C)[C@@H](O)[C@H](N)[C@@H]2O)C[C@@H]2O[C@](O)(C[C@@H](O)C[C@@H](O)[C@H](O)CC[C@@H](O)C[C@@H](O)CC(=O)O[C@H]1C)C[C@H](O)[C@H]2C(=O)O [AMPHOTERICIN B]
MST (Aspergillus fumigatus [5]): 18 days
